In patent publication US9663496B2, “AMPK-activating heterocyclic compounds and methods for using the same” (Rigel Pharmaceuticals, Inc., priority 2010, dated 2017):

Biological target: AMPK
Assay: AMPK activation, enzyme-linked immunosorbent assay
Type: biochemical
Settings: EC50 for AMPK activation, ELISA
Summary of the method: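 Read-out: immunodetected kinase activation after compound exposure, run with commercial kit reagents.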

| Compound | EC50 [nM] |
| --- | --- |
| N#Cc1ccc(O[C@H]2CC[C@H](NC(=O)c3ccc(C(=O)N4CCC(Oc5ccc(F)cc5)CC4)cn3)CC2)cc1 [Compound 169, N-((trans)-4-(4-cyanophenoxy)cyclohexyl)-5-(4-(4-fluorophenoxy)piperidine-1-carbonyl)picolinamide] | 500 to 1000 |
| N#Cc1ccc(CN2CCC(NC(=O)c3ccc(C(=O)N4CCN(Cc5ccncc5)CC4)cn3)CC2)cc1 [Compound 103, N-(1-(4-cyanobenzyl)piperidin-4-yl)-5-(4-(pyridin-4-ylmethyl)piperazine-1-carbonyl)picolinamide] | < 500 |
| N#Cc1ccc(CN2CCC(NC(=O)c3cccc(C(=O)NC4CCN(Cc5ccc(C#N)cc5)CC4)n3)CC2)cc1 [Compound 86, N2,N6-bis(1-(4-cyanobenzyl)piperidin-4-yl)pyridine-2,6-dicarboxamide] | 1000 to 5000 |
| COc1ccc(C(=O)C2CCN(C(=O)c3ccc(C(=O)Nc4ccc(Oc5ccc(C#N)cc5)nc4C)cn3)CC2)cc1 [Compound 478, N-(6-(4-cyanophenoxy)-2-methylpyridin-3-yl)-6-(4-(4-methoxybenzoyl)piperidine-1-carbonyl)nicotinamide] | < 500 |
| N#Cc1ccc(CN2CCC(NC(=O)c3ccc(C(=O)N4CCC(Oc5ccc(S(F)(F)(F)(F)F)cc5)CC4)cn3)CC2)cc1 [Compound 492, N-(1-(4-cyanobenzyl)piperidin-4-yl)-5-(4-(4-(pentafluorosulfanyl)phenoxy)piperidine-1-carbonyl)picolinamide] | < 500 |
| CC(=O)c1ccc(OC2CCN(C(=O)c3ccc(C(=O)NC4CCN(Cc5ccc(C#N)cc5)CC4)cn3)CC2)cc1 [Compound 390, 6-(4-(4-acetylphenoxy)piperidine-1-carbonyl)-N-(1-(4-cyanobenzyl)piperidin-4-yl)nicotinamide] | < 500 |
| COc1ccc(C(=O)C2CCN(C(=O)c3ccc(C(=O)N[C@@H]4CCN(Cc5ccc(C#N)c(F)c5)C[C@H]4F)cn3)CC2)cc1 (relative stereo) [Compound 354, N-((trans)-1-(4-cyano-3-fluorobenzyl)-3-fluoropiperidin-4-yl)-6-(4-(4-methoxybenzoyl)piperidine-1-carbonyl)nicotinamide] | < 500 |
| N#Cc1ccc(CN2CCC(NC(=O)c3ccc(C(=O)N4CCC(S(=O)(=O)c5ccc(F)cc5)CC4)cn3)CC2)cc1 [Compound 262, N-(1-(4-cyanobenzyl)piperidin-4-yl)-5-(4-(4-fluorophenylsulfonyl)piperidine-1-carbonyl)picolinamide] | < 500 |
| COc1ccc(CN2CCC(NC(=O)c3ccc(C(=O)N4CCC(Oc5ccc(S(C)(=O)=O)cc5)CC4)nc3)CC2)cc1 [Compound 237, N-(1-(4-methoxybenzyl)piperidin-4-yl)-6-(4-(4-(methylsulfonyl)phenoxy)piperidine-1-carbonyl)nicotinamide] | 1000 to 5000 |
| O=C(NC1CCN(Cc2cc(F)cc(F)c2)CC1)c1ccc(C(=O)N2CCC(C(=O)c3ccc(F)c(F)c3)CC2)cn1 [Compound 298, 5-(4-(3,4-difluorobenzoyl)piperidine-1-carbonyl)-N-(1-(3,5-difluorobenzyl)piperidin-4-yl)picolinamide] | < 500 |
| COc1ccc(S(=O)(=O)N2CCN(C(=O)c3ccc(C(=O)NC4CCN(Cc5ccc(C#N)cc5)CC4)nc3)CC2)cc1 [Compound 79, N-(1-(4-cyanobenzyl)piperidin-4-yl)-5-(4-(4-methoxyphenylsulfonyl)piperazine-1-carbonyl)picolinamide] | 500 to 1000 |
| N#Cc1ccc(CN2CCC(NC(=O)c3ccc(C(=O)NC4CCN(c5ccc(C#N)cc5)CC4)cn3)CC2)cc1 [Compound 166, N2-(1-(4-cyanobenzyl)piperidin-4-yl)-N5-(1-(4-cyanophenyl)piperidin-4-yl)pyridine-2,5-dicarboxamide] | < 500 |
| N#Cc1ccc(CN2CCC(NC(=O)c3ccc(C(=O)N4CCC(Oc5ccc(F)cc5F)CC4)cn3)CC2)cc1 [Compound 282, N-(1-(4-cyanobenzyl)piperidin-4-yl)-5-(4-(2,4-difluorophenoxy)piperidine-1-carbonyl)picolinamide] | < 500 |
| N#Cc1ccc(OC2CCN(C(=O)c3ccc(C(=O)NC4CCN(Cc5ccc(N6CCCC6)cc5)CC4)nc3)CC2)cc1 [Compound 197, 5-(4-(4-cyanophenoxy)piperidine-1-carbonyl)-N-(1-(4-(pyrrolidin-1-yl)benzyl)piperidin-4-yl)picolinamide] | < 500 |
| COc1ccc(OC2CCN(C(=O)c3ccc(C(=O)N[C@H]4CC[C@H](Oc5ccc(C#N)cc5)CC4)nc3)CC2)cc1 [Compound 172, N-((trans)-4-(4-cyanophenoxy)cyclohexyl)-5-(4-(4-methoxyphenoxy)piperidine-1-carbonyl)picolinamide] | < 500 |
| N#Cc1ccc(CN2CCC(NC(=O)c3ccc(C(=O)Nc4cccc(Cc5ccccc5)c4)cn3)CC2)cc1 [Compound 5, N^2-(1-(4-cyanobenzyl)piperidin-4-yl)-N^5-(3-benzylphenyl)pyridine-2,5-dicarboxamide] | 500 to 1000 |
| O=C(NC1CCN(c2ccc(F)cc2)CC1)c1ccc(C(=O)N2CCN(Cc3ccc(F)cc3)CC2)nc1 [Compound 404, 6-(4-(4-fluorobenzyl)piperazine-1-carbonyl)-N-(1-(4-fluorophenyl)piperidin-4-yl)nicotinamide] | 1000 to 5000 |
| COc1ccc(C(=O)C2CCN(C(=O)c3ccc(C(=O)NC4CCN(Cc5ccc(N)cc5)CC4)cn3)CC2)cc1 [Compound 400, N-(1-(4-aminobenzyl)piperidin-4-yl)-6-(4-(4-methoxybenzoyl)piperidine-1-carbonyl)nicotinamide] | 1000 to 5000 |
| CC(C)(C)C(=O)N1CCN(C(=O)c2ccc(C(=O)NC3CCN(Cc4ccc(C#N)cc4)CC3)nc2)CC1 [Compound 81, N-(1-(4-cyanobenzyl)piperidin-4-yl)-5-(4-pivaloylpiperazine-1-carbonyl)picolinamide] | 500 to 1000 |
| Cc1cc(CN2CCN(C(=O)c3ccc(C(=O)NC4CCN(Cc5ccccc5)CC4)nc3)CC2)no1 [Compound 85, N-(1-benzylpiperidin-4-yl)-5-(4-((5-methylisoxazol-3-yl)methyl)piperazine-1-carbonyl)picolinamide] | 1000 to 5000 |
| O=C(NC1CCN(Cc2cc(F)cc(F)c2)CC1)c1ccc(C(=O)N2CC(OCc3ccc(F)cc3)C2)cn1 [Compound 308, N-(1-(3,5-difluorobenzyl)piperidin-4-yl)-5-(3-(4-fluorobenzyloxy)azetidine-1-carbonyl)picolinamide] | < 500 |
| CC(=O)c1ccc(Oc2ccc(NC(=O)c3ccc(C(=O)N4CCC(Oc5ccc(S(C)(=O)=O)cc5)CC4)nc3)cn2)cc1 [Compound 485, N-(6-(4-acetylphenoxy)pyridin-3-yl)-6-(4-(4-(methylsulfonyl)phenoxy)piperidine-1-carbonyl)nicotinamide] | < 500 |
| N#Cc1ccc(Cn2ccc(NC(=O)c3ccc(C(=O)N4CCN(Cc5ccc(F)cc5)CC4)cn3)n2)cc1 [Compound 9, N-(1-(4-cyanobenzyl)-1H-pyrazol-3-yl)-5-(4-(4-fluorobenzyl)piperazine-1-carbonyl)picolinamide] | < 500 |
| COc1ccc(C(=O)C2CCN(C(=O)c3ccc(C(=O)N[C@H]4CC[C@@H](Oc5ccc(C(F)(F)F)cc5)CC4)nc3)CC2)cc1 [Compound 192, 5-(4-(4-methoxybenzoyl)piperidine-1-carbonyl)-N-((cis)-4-(4-(trifluoromethyl)phenoxy)cyclohexyl) picolinamide] | < 500 |
